From patent US7803930B2, “Antisense modulation of apolipoprotein B-expression” (Isis Pharmaceuticals, Inc., priority 2002, dated 2010)
Blank lines part the entries; values can stand above or below the compound they belong to.

Columns and labels:
PTEN = test: ob/ob mice (Example 50): PTEN levels; format: in vivo, mouse; conditions: high fat high cholesterol diet, 50 mg/kg i.p. twice a week, six weeks
Procedure: (§1) Ob/ob mice receiving a high fat, high cholesterol diet (60% kcal fat supplemented with 0.15% cholesterol) were treated with one of several oligonucleotides to evaluate their effect on apolipoprotein B-related phenotypic endpoints in ob/ob mice. After overnight fasting, mice from each group were dosed intraperitoneally twice a week with 50 mg/kg of ISIS 147483 (SEQ ID NO: 79), or 147764 (SEQ ID NO: 109), or the controls ISIS 116847 (SEQ ID NO: 857), or 141923 (SEQ ID NO: 858), or saline for six weeks. At study termination and forty eight hours after the final injections, animals were sacrificed and evaluated for target mRNA levels in liver, cholesterol and triglyceride levels, liver enzyme levels, serum glucose levels, and PTEN levels.

[1] = ob/ob mice (Example 50): cholesterol, lipid, triglyceride, liver enzyme and glucose levels; format: in vivo, mouse; conditions: high fat high cholesterol diet, 50 mg/kg i.p. twice a week, six weeks
Procedure: as §1

apolipoprotein B mRNA [2] = test: ob/ob mice (Example 50): apolipoprotein B mRNA levels in liver; format: in vivo, mouse; conditions: liver, high fat high cholesterol diet, 50 mg/kg i.p. twice a week, six weeks
Procedure: as §1

[3] = format: in vivo, mouse
Description: (§2) Female ApoE knockout mice ranged in age from 5 to 7 weeks and were placed on a normal diet for 2 weeks before study initiation. ApoE knockout mice were then fed ad libitum a 60% fat diet, with 0.15% added cholesterol to induce dyslipidemia and obesity. Control animals were maintained on a high-fat diet with no added cholesterol. […]
(§3) At study termination and forty eight hours after the final injections, animals were sacrificed and evaluated for target mRNA levels in liver by RT-PCR methods verified by Northern Blot analysis, glucose levels, cholesterol and lipid levels by HPLC separation methods and triglyceride and liver enzyme levels (performed by LabCorp Preclinical Services; San Diego, Calif.).
(§4) Data are normalized to saline controls.

apolipoprotein B mRNA [4] = test: LDLr(-/-) mice dose response (Example 44): apolipoprotein B mRNA; format: in vivo, mouse; conditions: 20 mg/kg, six weeks
Procedure: LDLr(−/−) mice, purchased from Taconic (Germantown, N.Y.) were used to evaluate antisense oligonucleotides for their potential to lower apolipoprotein B mRNA or protein levels, as well as phenotypic endpoints associated with apolipoprotein B. LDLr(−/−) mice were separated into groups of males and females. LDLr(−/−) mice were dosed intraperitoneally twice a week for six weeks with either 10, 25, or 50 mg/kg of ISIS 147764 (SEQ ID NO: 109) or ISIS 270906 (SEQ ID NO: 856) which is a 4 base mismatch of ISIS 147764, or with saline, or 20 mg/kg of Atorvastatin. At study termination animals were sacrificed and evaluated for several phenotypic markers.

[5] = High fat fed C57BL/6 mice, 6 week timecourse: body, spleen, liver and fat pad weight; format: in vivo, mouse; conditions: 20 mg/kg daily, six weeks, vs saline-treated controls
Procedure: Male C57BL/6 mice (n=8) receiving a high fat diet (60% kcal fat) were evaluated over the course of 6 weeks for the effects of ISIS 147764 on body, spleen, liver and fat pad weight. Control animals received saline treatment (50 mg/kg). […]
At study termination, animals were sacrificed 48 hours after the final injections and body, spleen, liver and fat pad weights were measured. Values are expressed as percent change in body weight or ogan weight compared to the saline-treated control animals. Negative values indicated a decrease in weight.

[6] = High fat fed C57BL/6 mice, 6 week timecourse: serum cholesterol, triglyceride, lipoprotein and glucose levels; format: in vivo, mouse; conditions: for Percent Inhibition HDL / Percent Inhibition LDL / Percent Inhibition VLDL: 20 mg/kg daily oral, negative = increase
Procedure: Male C57BL/6 mice (n=8) receiving a high fat diet (60% kcal fat) were evaluated over the course of 6 weeks for the effects of treatment with the antisense oligonucleotide, ISIS 147764. Control animals received saline treatment (50 mg/kg). A subset of animals received a daily oral dose (20 mg/kg) atorvastatin calcium (Lipitor®, Pfizer Inc.). All mice, except atorvastatin-treated animals, were dosed intraperitoneally every three days (twice a week), after fasting overnight, with 5, 25, 50 mg/kg ISIS 147764 (SEQ ID No: 109) or saline (50 mg/kg) for six weeks. Serum cholesterol and lipoproteins were analyzed at 0, 2 and 6 week interim timepoints. At study termination, animals were sacrificed 48 hours after the final injections and evaluated for levels of target mRNA levels in liver, cholesterol, lipoprotein, triglyceride, liver enzyme (AST and ALT) and serum glucose levels as well as body, liver, spleen and fat pad weights.
(§5) Male C57BL/6 mice (n=8) receiving a high fat diet (60% kcal fat) were evaluated over the course of 6 weeks for the effects of ISIS 147764 on serum cholesterol and triglyceride levels. Control animals received saline treatment (50 mg/kg). Mice were dosed intraperitoneally every three days (twice a week), after fasting overnight, with 5, 25, 50 mg/kg ISIS 147764 (SEQ ID No: 109) or saline (50 mg/kg) for six weeks.
Values in the table are expressed as percent inhibition and are normalized to the saline control.
In addition to serum cholesterol, at study termination, animals were sacrificed 48 hours after the final injections and evaluated for triglyceride levels.
as §5, with “lipoprotein (VLDL, LDL” for “serum cholesterol”, “HDL)” for “triglyceride”
Values in the table are expressed as percent inhibition and are normalized to the saline control. Negative values indicate an observed increase in lipoprotein levels.
as §5, with “glucose” for “cholesterol and triglyceride”
At study termination, animals were sacrificed 48 hours after the final injections and evaluated for serum glucose levels. […] Mice treated with atorvastatin at a daily oral dose of 20 mg/kg had serum glucose levels of 215 mg/dL.

apolipoprotein B mRNA [7] = test: ApoE knockout mice (Example 28): target mRNA levels in liver; format: in vivo, mouse; conditions: high fat diet, 20 mg/kg daily
Description: as §2, §3, §4

[8] = High fat fed C57BL/6 mice, 6 week timecourse: serum AST and ALT levels; format: in vivo, mouse; conditions: daily oral dose of 20 mg/kg
Procedure: Male C57BL/6 mice (n=8) receiving a high fat diet (60% kcal fat) were evaluated over the course of 6 weeks for the effects of ISIS 147764 on liver enzyme (AST and ALT) levels. Increased levels of the liver enzymes ALT and AST indicate toxicity and liver damage. Control animals received saline treatment (50 mg/kg). […] AST and ALT levels were measured at 6 weeks.

[9] = system: mouse apolipoprotein B mRNA; test: Inhibition of mouse apolipoprotein B mRNA levels in primary mouse hepatocytes, real-time PCR; format: cell-based
Procedure: Primary mouse hepatocytes were prepared from CD-1 mice purchased from Charles River Labs (Wilmington, Mass.) and were routinely cultured in Hepatoyte Attachment Media (Gibco) supplemented with 10% Fetal Bovine Serum (Gibco/Life Technologies, Gaithersburg, Md.), 250 nM dexamethasone (Sigma), and 10 nM bovine insulin (Sigma). Cells were seeded into 96-well plates (Falcon-Primaria #3872) at a density of 10000 cells/well for use in RT-PCR analysis.
When cells reached 80% confluency, they were treated with oligonucleotide. For cells grown in 96-well plates, wells were washed once with 200 μL OPTI-MEM™-1 reduced-serum medium (Gibco BRL) and then treated with 130 μL of OPTI-MEM™-1 containing 3.75 μg/mL LIPOFECTIN™ (Gibco BRL) and the desired concentration of oligonucleotide. After 4-7 hours of treatment, the medium was replaced with fresh medium. Cells were harvested 16-24 hours after oligonucleotide treatment.
Quantitation of apolipoprotein B mRNA levels was determined by real-time quantitative PCR using the ABI PRISM™ 7700 Sequence Detection System (PE-Applied Biosystems, Foster City, Calif.) according to manufacturer's instructions. This is a closed-tube, non-gel-based, fluorescence detection system which allows high-throughput quantitation of polymerase chain reaction (PCR) products in real-time. As opposed to standard PCR, in which amplification products are quantitated after the PCR is completed, products in real-time quantitative PCR are quantitated as they accumulate. This is accomplished by including in the PCR reaction an oligonucleotide probe that anneals specifically between the forward and reverse PCR primers, and contains two fluorescent dyes. A reporter dye (e.g., JOE, FAM, or VIC, obtained from either Operon Technologies Inc., Alameda, Calif. or PE-Applied Biosystems, Foster City, Calif.) is attached to the 5′ end of the probe and a quencher dye (e.g., TAMRA, obtained from either Operon Technologies Inc., Alameda, Calif. or PE-Applied Biosystems, Foster City, Calif.) is attached to the 3′ end of the probe. When the probe and dyes are intact, reporter dye emission is quenched by the proximity of the 3′ quencher dye. During amplification, annealing of the probe to the target sequence creates a substrate that can be cleaved by the 5′-exonuclease activity of Taq polymerase. […] With each cycle, additional reporter dye molecules are cleaved from their respective probes, and the fluorescence intensity is monitored at regular intervals by laser optics built into the ABI PRISM™ 7700 Sequence Detection System. In each assay, a series of parallel reactions containing serial dilutions of mRNA from untreated control samples generates a standard curve that is used to quantitate the percent inhibition after antisense oligonucleotide treatment of test samples.
Probes and primers to mouse apolipoprotein B were designed to hybridize to a mouse apolipoprotein B sequence, using published sequence information (GenBank accession number M35186, incorporated herein as SEQ ID NO: 10). For mouse apolipoprotein B the PCR primers were: forward primer: CGTGGGCTCCAGCATTCTA (SEQ ID NO: 11) reverse primer: […] (SEQ ID NO: 12) and the PCR probe was: FAM-[…]-TAMRA SEQ ID NO: 13) where FAM (PE-Applied Biosystems, Foster City, Calif.) is the fluorescent reporter dye) and TAMRA (PE-Applied Biosystems, Foster City, Calif.) is the quencher dye. For mouse GAPDH the PCR primers were: forward primer: […] (SEQ ID NO: 14) reverse primer: […] (SEQ ID NO:15) and the PCR probe was: 5′ JOE-[…]-TAMRA 3′ (SEQ ID NO: 16) where JOE (PE-Applied Biosystems, Foster City, Calif.) is the fluorescent reporter dye) and TAMRA (PE-Applied Biosystems, Foster City, Calif.) is the quencher dye.
In accordance with the present invention, a series of oligonucleotides was designed to target different regions of the mouse apolipoprotein B RNA, using published sequence (GenBank accession number M35186, incorporated herein as SEQ ID NO: 10). […]

[10] = ApoE knockout mice, high fat diet, 20 mg/kg daily

Compound: 116847 (antisense CTGCTAGCCTCTGGATTTGA; listed as DNA, chemistry not given here) [compound 116847]
mRNA % control PTEN (PTEN): 20.0 % control
Glucose [1]: 135.5 mg/dL
Lipoproteins CHOL [1]: 287.5 mg/dL
Lipoproteins TRIG [1]: 196.5 mg/dL
Liver Enzymes ALT [1]: 607.5 IU/L
Liver Enzymes AST [1]: 343.2 IU/L
mRNA % control ApoB (apolipoprotein B mRNA [2]): 77.0 % control

Percent Change Liver weight [5]: 15%
Percent Change Spleen weight [5]: 10%
Percent Change Total Body Wt. [5]: 1%
Compound: CC(C)c1c(C(=O)Nc2ccccc2)c(-c2ccccc2)c(-c2ccc(F)cc2)n1CC[C@@H](O)C[C@@H](O)CC(=O)O [atorvastatin, atorvastatin calcium, reference compound]
Cholesterol Levels [3, 10]: 938 mg/dL
Glucose Levels [3, 10]: 162 mg/dL
Lipoprotein Levels HDL [3, 10]: 42 mg/dL
Lipoprotein Levels LDL [3, 10]: 250 mg/dL
Lipoprotein Levels VLDL [3, 10]: 653 mg/dL
Liver Enzyme Levels ALT ([3]; mouse, in vivo, 20 mg/kg): 76 IU/L
Liver Enzyme Levels AST ([3]; mouse, in vivo, 20 mg/kg): 75 IU/L
apolipoprotein B mRNA % control (apolipoprotein B mRNA [4]; female LDLr(-/-) mice): 109.0 % control
apolipoprotein B mRNA % control (apolipoprotein B mRNA [4]; male LDLr(-/-) mice): 110.9 % control
Percent Change Fat (fat pad weight) [5]: 7%
Percent Inhibition HDL ([6]; 0 weeks): 0%
Percent Inhibition LDL ([6]; 0 weeks): 0%
Percent Inhibition VLDL ([6]; 0 weeks): 0%
Percent Inhibition HDL ([6]; 2 weeks): 15%
Percent Inhibition LDL ([6]; 2 weeks): 10%
Percent Inhibition VLDL ([6]; 2 weeks): 15%
Percent Inhibition HDL ([6]; 6 weeks): 20%
Percent Inhibition LDL ([6]; 6 weeks): −10%
Percent Inhibition VLDL ([6]; 6 weeks): −5%
serum glucose levels ([6]; daily oral dose of 20 mg/kg): 215 mg/dL
decrease in serum cholesterol ([6]; oral dose of 20 mg/kg, study termination): 20%
mRNA Percent Inhibition (apolipoprotein B mRNA [7]): 10%
AST levels [8]: 85 IU/L
AST levels (printed in the ALT paragraph) [8]: 40 IU/L

Compound: 147483 (ATGTCAATGCCACATGTCCA; phosphorothioate, 2'-MOE wings, chemistry not fully specified) [compound 147483]
Percent Inhibition 50 nM ([9]; Table 4, 50 nM): 56%
Percent Inhibition 150 nM ([9]; Table 4, 150 nM): 88%
Percent Inhibition 300 nM ([9]; Table 4, 300 nM): 89%
mRNA % control PTEN (PTEN): 143.2 % control
Glucose [1]: 213.2 mg/dL
Lipoproteins CHOL [1]: 250.0 mg/dL
Lipoproteins TRIG [1]: 99.8 mg/dL
Liver Enzymes ALT [1]: 941.7 IU/L
Liver Enzymes AST [1]: 790.2 IU/L
mRNA % control ApoB (apolipoprotein B mRNA [2]): 25.2 % control
